From patent publication US20200038514A1, “FOLATE CONJUGATE FOR USE IN TARGETING TUMOR ASSOCIATED MACROPHAGES” (ENDOCYTE, INC., priority 2016, published 2020)

Legend:
KB tumor = test: In vivo activity against KB tumors in mice; details: 0.5 μmol/kg once a week for two weeks
From the text: Treatment with 0.5 μmol/kg of Conjugate 5, once a week for two weeks also produced maximal anti-tumor activity with 100% cures. Change in weight is shown in FIG. 2B for test mice dosed at 0.5 μmol/kg Conjugate 5 SIW for two weeks (▴) compared to untreated control (▪).

Calf thymus DNA (CT-DNA) = test: DNA crosslinking assay (ethidium bromide fluorescence); type: biochemical; details: 1.1 to 75 μM, 37° C. 2 hours
Experimental: Calf thymus DNA (CT-DNA) was combined with increasing concentrations of Conjugate 5 (1.1 to 75 μM) or Conjugate 5+/−DTT. These solutions were incubated at 37° C. for 2 hours. The solutions were then mixed with ethidium bromide and incubated for 2 hours at room temperature. Fluorescence (Ex: 535 nm, Em: 605 nm) from these samples was measured on the Fluoroskan II fluorimeter. Next, the samples were heated to 104° C. for 5 minutes, cooled on ice for 5 minutes, kept at RT for 15 minutes and fluorescence measured. % crosslinking of each sample was calculated using the fluorescence values from the positive and negative controls.

ST502 TNBC PDX tumors = test: In vivo activity against triple negative breast tumors (FIG. 5); design: species or system mice
Experimental: (§1) Mice were maintained and tumor volumes were measures according to Method 3.
(§2) Primary human TNBC model ST502 (2-4 mm in diameter) or primary human TNBC model ST738 (2-4 mm in diameter) were inoculated subcutaneously at the right flank of each mouse. Mice were randomized into experimental groups of 7 mice each and test articles were injected through the lateral tail vein under sterile conditions in a volume of […] of phosphate-buffered saline (PBS).

ST070 ovarian PDX tumors = test: In vivo activity against ovarian tumors; design: species or system mice
Experimental: as §1
as §2, with “Ovarian” for “TNBC”, “ST070 fragments” for “ST502 (2-4 mm in diameter) or primary human TNBC model ST738”

4T1p tumor cells = test: XTT cell viability assay, 4T1p; type: cell-based, mouse; details: 2 hours exposure up to 100 nM, 96 hour chase
Experimental: The FRα− and FRα+ expressing cell lines utilized to evaluate Conjugate 5 activity in-vitro and/or ex-vivo studies were (1) 4T1p, a mouse breast cancer cell line that resembles triple negative breast cancer in humans, (2) 4T1-C12, 4T1p stably transfected with a mouse FRa, and (3) IGROV1, a human ovarian carcinoma cell line that expresses the human FRα. 4T1p and 4T1-C12 cells were grown respectively in a folate-replete or folate-free RPMI1640 medium (Gibco BRL) (FFRPMI) containing 10% heat-inactivated fetal calf serum (HIFCS) and antibiotics, and maintained under a 5% CO2 atmosphere using standard cell culture techniques. IGROV1 cells were grown in the same medium as 4T1-C12.
4T1p and 4T1-C12 tumor cells in 96-well plates (20,000 cells/well) were treated with 10-fold serial dilutions of Conjugate 5 (100 nM) in FFRPMI medium. After a 2 hour exposure, the drug-containing media were replaced and the cells were washed and allowed to incubate further for 96 hours. The cell viability was assessed by adding XTT (2,3-bis(2-methoxy-4-nitro-5-sulfo-phenyl)-2H-tetrazolium-5-carboxanilide) to the culture medium for 2 hours following the manufacturer's instructions. All results were expressed as % absorbance (minus background) relative to the untreated control cells.

TNBC PDX tumor = test: In vivo activity against triple negative breast tumors (FIG. 10); design: species or system mice; details: Conjugate 5 0.27 μmol/kg BIW two weeks; erubulin mesylate 1.0 μmol/kg SIW two weeks
Experimental: as §1, §2

ID8-C115 ascites tumors = test: Conjugate 5 versus EC1456 against various stages of ID8-C115 ascites tumors, survival; type: in vivo, mice
From the text: Mouse ascites tumors were generated by intra-peritoneal implantation of cultured cells at 5×10^6 in C57BL/6 mice.
In a first experiment (P-1836), all treatment started 7 days after the tumors were implanted. The mice were intravenously dosed with Conjugate 5 at 0.1 μmol/kg twice-per-week for a total of 6 doses (BIW×3). […] In a second experiment (P-1846), Conjugate 5 treatment started 21 days after the tumors were implanted. The mice were intravenously dosed with Conjugate 5 at 0.1 μmol/kg for 3 consecutive days each week for 3 weeks (D0-2×3, 9 doses). […] In a third experiment (P-1861), Conjugate 5 treatment started 35 days after the tumors were implanted. The mice were intravenously dosed with Conjugate 5 at 0.3 μmol/kg once-a-week for 2 consecutive weeks (SIW×2, 2 doses). […] In a fourth experiment (P-1836), Conjugate 5 treatment started 43 days after the tumors were implanted. The mice were intravenously dosed with Conjugate 5 at 0.3 μmol/kg once-a-week for 2 consecutive weeks (SIW×2, 2 doses). […] All mice were weighed 3 times/week and assessed for any clinical sign of swollen bellies indicative of ascites formation and for evidence of toxicity including respiratory distress, mobility, weight loss, diarrhea, hunched posture, and failure to eat. Once the animals developed ascites, they were monitored daily and euthanized when ascites became severe (rounded and walking on tip toes).

SMILES: C=C1C[C@H]2C=Nc3cc(OCCCCCOc4cc(N)c(C(=O)N5CC(=C)C[C@H]5C5OCCN5C(=O)OCC(C)(C)SSCCC(=O)NCCNC(=O)CCOCCOCCOCCOCCNC(=O)CCN5C(=O)CC(SC[C@H](NC(=O)[C@H](CC(=O)O)NC(=O)[C@H](CC(=O)O)NC(=O)[C@H](CCCNC(=N)N)NC(=O)[C@H](CC(=O)O)NC(=O)CC[C@H](NC(=O)c6ccc(NCc7cnc8nc(N)[nH]c(=O)c8n7)cc6)C(=O)O)C(=O)O)C5=O)cc4OC)c(OC)cc3C(=O)N2C1 (some centres unmarked) [Conjugate 5]
- cures (KB tumor): 100%
- DNA crosslinking, reduced form (Calf thymus DNA (CT-DNA); treated with DTT): can then crosslink with DNA
- DNA crosslinking, intact conjugate (Calf thymus DNA (CT-DNA); without DTT): not able to crosslink DNA
- cure (number of mice) (ST502 TNBC PDX tumors; 0.3 μmol/kg BIW for two weeks, n=7): 7
- TNBC PDX tumor size compared to untreated control (ST502 TNBC PDX tumors; Conjugate 5 0.3 μmol/kg BIW two weeks, EC1456 2.0 μmol/kg BIW two weeks): decreased TNBC PDX tumor size
- cure (number of mice) (ST070 ovarian PDX tumors; 0.5 μmol/kg SIW for two weeks, n=7): 7
- ovarian PDX tumor size compared to untreated control (ST070 ovarian PDX tumors; Conjugate 5 0.5 μmol/kg SIW, EC1456 4.0 μmol/kg SIW, paclitaxel 15 mg/kg SIW, two weeks): decreased ovarian PDX tumor size
- activity against FRα-negative 4T1p tumor cell in-vitro (4T1p tumor cells): completely inactive
- TNBC PDX tumor size compared to untreated control (TNBC PDX tumor): decreased TNBC PDX tumor size
- median survival time (ID8-C115 ascites tumors; 7-day-old tumors, Conjugate 5 0.1 mol/kg BIW×6 doses, EC1456 2 mol/kg BIW×6 doses, untreated ~46 days): ~77 days post tumor implant
- toxicity observed (ID8-C115 ascites tumors; 21-day-old tumors, Conjugate 5 0.1 mol/kg D0-2×3, 9 doses, EC1456 2 μmol/kg D0-2×, 9 doses): mild ataxia
- median survival time (ID8-C115 ascites tumors; 21-day-old tumors, Conjugate 5 0.1 mol/kg D0-2×3, 9 doses, EC1456 2 μmol/kg D0-2×, 9 doses (two remaining animals), untreated ~46 days): ~76 days
- median survival time (ID8-C115 ascites tumors; 35-day-old tumors, Conjugate 5 0.3 μmol/kg SIW×2, 2 doses, EC1456 2 mol/kg D0-2×2, 4 doses, untreated ~42 days): ~64 days post tumor implant
- median survival time (ID8-C115 ascites tumors; 43-day-old tumors, Conjugate 5 0.3 μmol/kg SIW×2, 2 doses, EC1456 2 mol/kg D0-2×1, 3 doses, untreated ~46 days): ~57 days post tumor implant
